Reference: article doi:10.1101/2024.09.27.615266v1 (biorxiv, 2024)
Blank lines part the entries; values can stand above or below the molecule they belong to.

Experiments:
[1] = biological target: T1, CYP2A6 (commercial, Vivid kit Baculosomes) (Homo sapiens, UniProt P11509); test: fluorescent 3-cyano coumarin turnover, Morrison tight-binding fit; format: biochemical
T1 sequence (P11509 1-494): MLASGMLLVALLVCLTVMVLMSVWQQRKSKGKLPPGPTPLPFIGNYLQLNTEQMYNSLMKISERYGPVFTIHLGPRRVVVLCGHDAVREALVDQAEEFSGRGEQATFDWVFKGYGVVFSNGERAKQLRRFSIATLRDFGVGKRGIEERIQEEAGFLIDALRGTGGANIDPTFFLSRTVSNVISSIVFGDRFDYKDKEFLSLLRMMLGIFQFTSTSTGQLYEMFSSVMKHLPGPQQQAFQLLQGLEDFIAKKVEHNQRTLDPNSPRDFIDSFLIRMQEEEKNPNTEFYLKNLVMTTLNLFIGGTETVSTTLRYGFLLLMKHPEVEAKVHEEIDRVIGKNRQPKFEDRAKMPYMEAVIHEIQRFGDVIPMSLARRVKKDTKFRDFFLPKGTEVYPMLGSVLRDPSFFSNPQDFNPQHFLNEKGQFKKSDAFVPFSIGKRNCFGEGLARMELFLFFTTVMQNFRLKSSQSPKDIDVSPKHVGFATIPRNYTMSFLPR

[2] = substrate: N#Cc1cc2ccccc2oc1=O; test: purified protein; format: biochemical, Homo sapiens; conditions: 10 nM CYP2A6, 30 μM NADPH, 0.25-32 μM substrate

Ki [1]: 208 ± 35.4 µM
Molecule: CCCCCC(O)/C=C/C=O (centres unmarked) [HNE]

B1: CYP2A6 (commercial, Vivid kit Baculosomes) (Homo sapiens) (protein)
chain: T1 sequence (P11509 1-494)
Km [2]: 12 ± 6 µM
